Laboratory results from patent US9247759B2, “Identification of human T2R receptors that respond to bitter compounds that elicit the bitter taste in compositions, and the use thereof in assays to identify compounds that inhibit (block) bitter taste in compositions and use thereof” (SENOMYX, INC., priority 2007, dated 2016).
Like-named read-outs stand apart in the source and are kept apart here.

Biological target: hT2R14 (Homo sapiens (Human), UniProt Q9NYV8)
Assay: hT2R14 antagonist high-throughput FLIPR assay, stable cell line with G16g44, agonist aristolochic acid
Type: cell-based
Description: The inventors also used the automated fluorimetric […] system FLIPR using a slightly different protocol. A HEK293 cell line stably expressing G16gust44 was transfected with a hT2R expression plasmid, 24 hours later, the cells are loaded and analyzed on FLIPR.
After a ligand is identified for a particular hT2R, a HEK293 cell line stably expressing both the hT2R and G16gust44 are generated, facilitating future screening assays to identify other ligands that activate the particular hT2R or which modulate (block or enhance) the activation of this hT2R by another bitter ligand such as a bitter compound contained in coffee. This avoids the need for transient transfection.
To identify antagonists, cell lines stably expressing hT2R8 and hT2R14, respectively, together with the promiscuous chimeric G16g44 protein were generated as described in previous patent applications. A high-throughput assay was established using the stable cell lines and FLIPR (Fluorescent Imaging Plate Reader). An agonist of hT2R8 or hT2R14 was used to activate the receptors up to 70-80% of their respective maximal activity. For hT2R8, the agonist used was andrographolide (200 […]); for hT2R14, it was aristolochic acid (3 μM). To identify antagonists, compounds with diverse chemical structures were added together with the agonist.

Chain of hT2R14 (Q9NYV8 whole entry): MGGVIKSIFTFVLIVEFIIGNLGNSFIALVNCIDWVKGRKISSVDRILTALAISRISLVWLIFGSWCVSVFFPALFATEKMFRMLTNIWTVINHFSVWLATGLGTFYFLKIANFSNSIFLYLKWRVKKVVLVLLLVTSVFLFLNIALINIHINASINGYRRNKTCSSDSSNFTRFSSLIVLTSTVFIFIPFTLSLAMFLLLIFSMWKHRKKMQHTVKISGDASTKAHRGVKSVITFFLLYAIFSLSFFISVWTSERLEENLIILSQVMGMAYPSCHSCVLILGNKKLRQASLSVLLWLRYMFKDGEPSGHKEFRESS

Compound | IC50 (Table C, read-out: hT2R14 IC50) [nM] | further results
COc1cccc(CN(Cc2ccccc2)S(=O)(=O)c2ccc(C(=O)O)cc2)c1 [Example 5-136, 4-(N-benzyl-N-(3-methoxybenzyl)sulfamoyl)benzoic acid] | 5990 | –
Cn1c(=O)c2c(SCC(=O)N3CCCCCC3)ccnc2n(C)c1=O [Example 6-28, 5-(2-(azepan-1-yl)-2-oxoethylthio)-1,3-dimethylpyrido[2,3-d]pyrimidine-2,4(1H,3H)-dione] | – | IC50 (Table D, read-out: hT2R14 IC50): 2380 nM
CCOC(=O)N1CCN(C(=O)CSc2nc(CC)nc3c2c(=O)n(C)c(=O)n3C)CC1 [Example 6-27, ethyl 4-(2-(2-ethyl-6,8-dimethyl-5,7-dioxo-5,6,7,8-tetrahydropyrimido[4,5-d]pyrimidin-4-ylthio)acetyl)piperazine-1-carboxylate] | – | IC50 (Table D, read-out: hT2R14 IC50): 763 nM
COc1ccc2c(c1)C(c1ccccc1)N(S(=O)(=O)c1ccc(C(=O)O)cc1)CC2 (centres unmarked) [Example 5-163, 4-(7-methoxy-1-phenyl-3,4-dihydroisoquinolin-2(1H)-ylsulfonyl)benzoic acid] | 2880 | –
CC(=O)CSc1nc(C2CCCC2)nc2c1c(=O)n(C)c(=O)n2C [Example 6-15, 7-cyclopentyl-1,3-dimethyl-5-(2-oxopropylthio)pyrimido[4,5-d]pyrimidine-2,4(1H,3H)-dione] | – | IC50 (Table D, read-out: hT2R14 IC50): 5430 nM
Cc1cc(C)c(C#N)c(NS(=O)(=O)c2ccc3c(c2)c(=O)n(C)c(=O)n3C)c1 [Example 6-17, N-(2-cyano-3,5-dimethylphenyl)-1,3-dimethyl-2,4-dioxo-1,2,3,4-tetrahydroquinazoline-6-sulfonamide] | – | IC50 (Table D, read-out: hT2R14 IC50): 1950 nM
CSc1ccc(CN(Cc2ccccc2)S(=O)(=O)c2ccc(C(=O)O)cc2)cc1 [Example 5-138, 4-(N-benzyl-N-(4-(methylthio)benzyl)sulfamoyl)benzoic acid] | 2460 | –
CCN(C)C(=O)CSc1nc(C)nc2c1c(=O)n(C)c(=O)n2C [Example 6-22, N-ethyl-N-methyl-2-(2,6,8-trimethyl-5,7-dioxo-5,6,7,8-tetrahydropyrimido[4,5-d]pyrimidin-4-ylthio)acetamide] | – | IC50 (Table D, read-out: hT2R14 IC50): 861 nM
O=C(O)c1ccc(S(=O)(=O)N(Cc2ccccc2)Cc2cccc(Cl)c2)cc1 [Example 5-142, 4-(N-benzyl-N-(3-chlorobenzyl)sulfamoyl)benzoic acid] | 4290 | –
O=C(O)c1ccc(S(=O)(=O)N(Cc2ccccc2)Cc2ccc(Cl)cc2)cc1 [Example 5-137, 4-(N-benzyl-N-(4-chlorobenzyl)sulfamoyl)benzoic acid] | 3980 | –
COc1ccc(CN(Cc2ccccc2Cl)S(=O)(=O)c2ccc(C(=O)O)cc2)cc1 [Example 5-130, 4-(N-(2-chlorobenzyl)-N-(4-methoxybenzyl)sulfamoyl)benzoic acid] | 7040 | –
O=C(O)c1ccc(S(=O)(=O)N(Cc2ccccc2)Cc2cccc(F)c2)cc1 [Example 5-139, 4-(N-benzyl-N-(3-fluorobenzyl)sulfamoyl)benzoic acid] | 2310 | –
COc1cc(OC)c(/C=C2\SC(=S)N(CCC(=O)O)C2=O)c(OC)c1 [Example 6-12, (Z)-3-(4-oxo-2-thioxo-5-(2,4,6-trimethoxybenzylidene)thiazolidin-3-yl)propanoic acid] | – | IC50 (Table D, read-out: hT2R14 IC50): 9370 nM
Cc1c(F)cccc1NS(=O)(=O)c1ccc2c(c1)c(=O)n(C)c(=O)n2C [Example 6-18, N-(3-fluoro-2-methylphenyl)-1,3-dimethyl-2,4-dioxo-1,2,3,4-tetrahydroquinazoline-6-sulfonamide] | – | IC50 (Table D, read-out: hT2R14 IC50): 935 nM
Cc1ccc(CN(Cc2ccccc2)S(=O)(=O)c2ccc(C(=O)O)cc2)cc1 [Example 5-132, 4-(N-benzyl-N-(4-methylbenzyl)sulfamoyl)benzoic acid] | 5390 | –
Cn1c(=O)c2cc(S(=O)(=O)Nc3ccc(Cl)cc3F)ccc2n(C)c1=O [Example 6-23, N-(4-chloro-2-fluorophenyl)-1,3-dimethyl-2,4-dioxo-1,2,3,4-tetrahydroquinazoline-6-sulfonamide] | – | IC50 (Table D, read-out: hT2R14 IC50): 9700 nM
COc1ccc(CN(C(C)c2ccccc2)S(=O)(=O)c2ccc(C(=O)O)cc2)cc1 (centres unmarked) [Example 5-149, 4-(N-(4-methoxybenzyl)-N-(1-phenylethyl)sulfamoyl)benzoic acid] | 1400 | –
Cc1nc(SCC(=O)N2CCOCC2)c2c(=O)n(C)c(=O)n(C)c2n1 [Example 6-25, 1,3,7-trimethyl-5-(2-morpholino-2-oxoethylthio)pyrimido[4,5-d]pyrimidine-2,4(1H,3H)-dione] | – | IC50 (Table D, read-out: hT2R14 IC50): 1010 nM
COc1ccc(CN(Cc2ccccc2)S(=O)(=O)c2ccc(C(=O)O)cc2)cc1C [Example 5-144, 4-(N-benzyl-N-(4-methoxy-3-methylbenzyl)sulfamoyl)benzoic acid] | 2000 | –
COc1ccc2c(c1)CCN(S(=O)(=O)c1ccc(C(=O)O)cc1)C2c1ccccc1 (centres unmarked) [Example 5-162, 4-(6-methoxy-1-phenyl-3,4-dihydroisoquinolin-2(1H)-ylsulfonyl)benzoic acid] | 9620 | –
COc1ccc(CN(Cc2ccccc2)S(=O)(=O)c2ccc(C(=O)O)cc2)cn1 [Example 5-145, 4-(N-benzyl-N-((6-methoxypyridin-3-yl)methyl)sulfamoyl)benzoic acid] | 3260 | –
COc1ccc(CN(Cc2ccccc2OC)S(=O)(=O)c2ccc(C(=O)O)cc2)cc1 [Example 5-121, 4-(N-(2-methoxybenzyl)-N-(4-methoxybenzyl)sulfamoyl)benzoic acid] | 2940 | –
Cc1nc2ccc(NS(=O)(=O)c3ccc4c(c3)n(C)c(=O)c(=O)n4C)cc2nc1C [Example 6-19, N-(2,3-dimethylquinoxalin-6-yl)-1,4-dimethyl-2,3-dioxo-1,2,3,4-tetrahydroquinoxaline-6-sulfonamide] | – | IC50 (Table D, read-out: hT2R14 IC50): 6330 nM
COc1ccc(CN(Cc2ccccc2)S(=O)(=O)c2ccc(C(=O)O)cc2)cc1OC [Example 5-39, 4-(N-benzyl-N-(3,4-dimethoxybenzyl)sulfamoyl)benzoic acid] | – | IC50 (read-out: IC50 on hT2R14 bitter receptor): 678 nM
O=C(O)c1ccc(S(=O)(=O)N(Cc2ccccc2)Cc2ccc3c(c2)OCO3)cc1 [Example 5-148, 4-(N-(benzo[d][1,3]dioxol-5-ylmethyl)-N-benzylsulfamoyl)benzoic acid] | 2170 | –

Second part, led by results:

IC50 (Table C, read-out: hT2R14 IC50) [nM] | Compound | further results
5020 | CCc1ccc(CN(CC2CCC(C(=O)O)CC2)C(=S)Nc2ccccc2C)cc1 (centres unmarked) [Example 5-113, 4-((1-(4-ethylbenzyl)-3-o-tolylthioureido)methyl) cyclohexanecarboxylic acid] | –
842 | CC(=O)Nc1ccc(S(=O)(=O)N(Cc2ccc(F)cc2)CC2CCC(C(=O)O)CC2)cc1 (centres unmarked) [Example 5-124, 4-((4-acetamido-N-(4-fluorobenzyl)phenylsulfonamido)methyl) cyclohexanecarboxylic acid] | –
2340 | CCOC(=O)C1CCC(CN(Cc2ccccc2)S(=O)(=O)c2ccc(Br)cc2)CC1 (centres unmarked) [Example 5-118, ethyl 4-((N-benzyl-4-bromophenylsulfonamido)methyl) cyclohexanecarboxylate] | –
6140 | COc1ccc(CN(CC2CCC(C(=O)O)CC2)C(=S)Nc2ccc(C)c(Cl)c2)cc1 (centres unmarked) [Example 5-111, 4-((3-(3-chloro-4-methylphenyl)-1-(4-methoxybenzyl)thioureido)methyl) cyclohexanecarboxylic acid] | –
8280 | O=C(O)c1ccc(S(=O)(=O)N(Cc2ccccc2)Cc2ccc(F)cc2)cc1 [Example 5-131, 4-(N-benzyl-N-(4-fluorobenzyl)sulfamoyl)benzoic acid] | –
92 | COc1ccc(S(=O)(=O)N(Cc2ccc(F)cc2)CC2CCC(C(=O)O)CC2)cc1 (centres unmarked) [Example 5-123, 4-((N-(4-fluorobenzyl)-4-methoxyphenylsulfonamido)methyl) cyclohexanecarboxylic acid] | –
499 | Cc1ccc(S(=O)(=O)N(Cc2ccc(C#N)cc2)CC2CCC(C(=O)O)CC2)cc1 (centres unmarked) [Example 5-127, 4-((N-(4-cyanobenzyl)-4-methylphenylsulfonamido)methyl) cyclohexanecarboxylic acid] | –
334 | CCOC(=O)C1CCC(CN(Cc2ccccc2)S(=O)(=O)c2ccc(NC(C)=O)cc2)CC1 (centres unmarked) [Example 5-115, ethyl 4-((4-acetamido-N-benzylphenylsulfonamido)methyl) cyclohexanecarboxylate] | –
1260 | COc1ccc(CN(Cc2ccc(F)cc2F)S(=O)(=O)c2ccc(C(=O)O)cc2)cc1 [Example 5-160, 4-(N-(2,4-difluorobenzyl)-N-(4-methoxybenzyl)sulfamoyl)benzoic acid] | –
36 | COc1cccc(CN(CC2CCC(C(=O)O)CC2)S(=O)(=O)c2ccc(C)cc2)c1 (centres unmarked) [Example 5-128, 4-((N-(3-methoxybenzyl)-4-methylphenylsulfonamido)methyl) cyclohexanecarboxylic acid] | –
6270 | COc1ccc(C2Cc3ccccc3CN2S(=O)(=O)c2ccc(C(=O)O)cc2)cc1 (centres unmarked) [Example 5-161, 4-(3-(4-methoxyphenyl)-3,4-dihydroisoquinolin-2(1H)-ylsulfonyl)benzoic acid] | –
2420 | COc1ccc(CN(C2CCCc3ccccc32)S(=O)(=O)c2ccc(C(=O)O)cc2)cc1 (centres unmarked) [Example 5-150, 4-(N-(4-methoxybenzyl)-N-(1,2,3,4-tetrahydronaphthalen-1-yl)sulfamoyl)benzoic acid] | –
2820 | CCOC(=O)C1CCC(CN(Cc2ccccc2Cl)S(=O)(=O)c2ccc(C)cc2)CC1 (centres unmarked) [Example 5-117, ethyl 4-((N-(2-chlorobenzyl)-4-methylphenylsulfonamido)methyl) cyclohexanecarboxylate] | –
